# Measurements from patent US8937038B2, “Composition containing peptide ligand that bonds with CXCR2 for treating infective and inflammatory diseases” (priority 2010, dated 2015).
# Key:
# CLP mice [1] = assay: Cytokines in peritoneal fluid after CLP (ELISA); format: in vivo, mouse
# Experimental: To measure a production amount of cytokines induced by CLP in a peritoneal lavage fluid, mice were provided with Ac-PGP for 2 hours, 14 hours, 26 hours, and 38 hours after CLP. A peritoneal lavage fluid was collected within various time zones between 4 and 72 hours after the CLP, and cytokines present in the peritoneal fluid was measured using ELISA (BD Biosciences Pharmingen).
# An effect of the Ac-PGP on a pro-inflammatory cytokine in a peritoneal fluid by CLP was determined from 4 to 72 hours after the CLP. The CLP induced a remarkable increase in levels of pro-inflammatory cytokines (TNF-α, IL-1β and IL-6) within 24 hours (FIGS. 14 to 16). Injection of the Ac-PGP in a sepsis model by the CLP induced a remarkable change in levels of the cytokines. […] To evaluate an effect of the Ac-PGP on production of the pro-inflammatory cytokines by the LPS, in vitro production of TNF-α and IL-6 by the mouse splenocytes was evaluated. Direct release of the TNF-α and IL-6 from the mouse splenocytes by the LPS was suppressed by in vitro treatment with the Ac-PGP (FIGS. 17 and 18).
# An effect of the Ac-PGP on levels of Th1 cytokines by CLP in a peritoneal fluid was also determined from 4 to 72 hours after the CLP.
# E. coli-vaccinated mice = assay: Survival in E. coli-induced sepsis model; format: in vivo; conditions: E. coli 1×10^9 cells/mouse; 17.5 mg/kg four times from 2 hours after vaccination; compared with PBS
# Experimental: (§1) Male WT ICR mice were used to evaluate a therapeutic effect of Ac-PGP. IFN-γ-deficient mice (kindly provided by Y. K. Kim at the Pohang University of Science and Technology, Pohang, Republic of Korea) were used for mechanism study. All Examples in which animals were used were performed according to the instructions with permission of the Institutional Review Board (IRB) for the care and management of laboratory animals at Dong-A University. In the case of the CLP, mice were anesthetized with pentothal sodium (50 mg/kg, intraperitoneally injected), and abdomen of each mouse was cut along a central cutting line to expose an appendix. Then, an ileocecal valve of the appendix was tied up, both surfaces of the ileocecal valve were punctured twice with a 22-gauge needle (or punctured once to measure a production amount of cytokines), and the abdomen was sutured. Sham CLP mice were treated in the same manner as described above, except that CLP of the appendix was not performed. A survival rate of the mice was monitored every day for 10 days. In the case of the LPS or E. coli model, E. coli and LPS were intraperitoneally injected at concentrations of 1×10^9 cells/mouse and 60 mg/kg, respectively. A survival rate of the mice was monitored once a day for 10 days.
# (§2) In another mouse model of sepsis, a therapeutic effect of Ac-PGP was also evaluated.
# human neutrophils = assay: Disinfection activity of human neutrophils against opsonized E. coli; format: cell-based; conditions: FIG. 27
# From the text: All kinds of protocols used in human beings were approved by the Institutional Review Board (IRB) at Dong-A University Hospital, and prior consents were obtained from all blood donors. Peripheral blood was collected from healthy donors, and human peripheral monocytes were separated using a Histopaque-1077 gradient. Neutrophils were separated through methods such as dextran precipitation of red blood cell, hypotonic lysis, and usage of lymphocyte isolation medium gradient, as known in the related art (Bae, Y. S. et al. Blood 97, 2854-2862(2001)). The separated human leukocytes were used immediately.
# The disinfection activities of the neutrophils were measured according to a method disclosed by Yan et al. (Yan J J et al. 2004 Nat. Med. 10:161-167). The neutrophils were stationarily incubated at 37° C. for an hour on a 13 mm plastic cover slip in a 60 mm plastic culture dish. The non-attached cells were removed by PBS. The attached neutrophils were stationarily incubated for an hour with 10^6 opsonized E. coli cells. The non-phagocytized E. coli cells were washed, and the number of bacteria surviving in the neutrophils was determined before and after the E. coli cells were treated with various concentrations of Ac-PGP or vehicle for an hour. A percentage of the apoptosized bacteria was calculated as follows. 100×(1−CFU Number after stimulus with Ac-PGP/CFU Number before stimulus with Ac-PGP)
# Since Ac-PGP strongly promoted the disinfection activity of the mouse neutrophils, a bacteriocidal effect of the Ac-PGP on human neutrophils was examined.
# [2] = system: mice into which LPS was intraperitoneally injected; assay: Survival in LPS-induced sepsis model; format: in vivo, mouse; conditions: 60 mg/kg LPS intraperitoneally; FIG. 4
# Experimental: as §1, §2
# CLP mice [3] = assay: Survival of CLP sepsis mice; format: in vivo, mouse
# Experimental: as §1
# An experimental therapeutic effect of Ac-PGP on sepsis was examined in CLP using albino Institute of Cancer Research (ICR) mice. Survival of the mice was monitored for 10 days after CLP. On the second day after the CLP, only 20% of untreated WT mice survived (FIG. 1).
# The Ac-PGP was evaluated to determine whether the antiseptic activity of Ac-PGP served through CXCR2 that was a known receptor of Ac-PGP.
substance,measurement,setting,value
acetylated-Pro-Gly-Pro [Ac-PGP],level of TNF-α in peritoneal fluid,"CLP mice [1]; 4 to 72 hours after CLP, FIG. 14",induced a decrease in levels
same,level of IL-1β in peritoneal fluid,"CLP mice [1]; 4 to 72 hours after CLP, FIG. 15",induced a decrease in levels
same,level of IL-6 in peritoneal fluid,"CLP mice [1]; 4 to 72 hours after CLP, FIG. 16",induced a decrease in levels
same,level of IFN-γ in peritoneal fluid,"CLP mice [1]; 4 to 72 hours after CLP, FIG. 19",remarkably increased
same,level of IL-12p70 in peritoneal fluid,"CLP mice [1]; 4 to 72 hours after CLP, FIG. 20",remarkably increased
same,level of IL-2 in peritoneal fluid,"CLP mice [1]; 4 to 72 hours after CLP, FIG. 21",remarkably increased
same,level of IFN-γ in the peritoneal fluid,CLP mice [1]; 24 hours after the CLP,improved levels
same,level of IL-12 in the peritoneal fluid,CLP mice [1]; 24 hours after the CLP,improved levels
same,death rate,E. coli-vaccinated mice,death rate decreased
same,killing of opsonified E. coli,human neutrophils; 20 nM,almost completely killed opsonified E. coli
same,disinfection activity,human neutrophils; 100 nM,remarkably improved the disinfection activity
same,bacterial killing by the human neutrophils,human neutrophils; various concentrations,dose-dependent effect on bacterial killing
same,mortality,[2],decreased mortality
same,survival rate,"CLP mice [3]; 17.5 mg/kg injected 3 or 4 times from 2 hours after CLP at an interval of 12 hours, FIG. 2",highly increased
same,survival rate,"CLP mice [3]; CLP mice pretreated with CXCR2-selective antagonist SB225002, FIG. 5",could not improve the survival rate
same,survival rate,"CLP mice [3]; CXCR2-deficient sepsis mice, FIG. 6",could not improve a survival rate
same,survival rate,CLP mice [3]; administered 4 to 5 times at 17.5 mg/kg,highest increase in survival rate
same,therapeutic effect (survival),"CLP mice [3]; injected 10 hours after the CLP, FIG. 3",a therapeutic effect was still exhibited
same,survival of the mice,"CLP mice [3]; injection of 7.5, 12.5 or 17.5 mg/kg, compared with PBS-injected control, FIG. 1",remarkably increased survival of the mice
same,survival rate,"CLP mice [3]; subcutaneous administration 2 hours after CLP, various doses, monitored 10 days, FIG. 1",remarkably increased the survival rate in a dose-dependent manner
